Several values for one entry are separate records, joined by “and”; a condition that tells them apart may be missing. Identical values can stand only once.
Columns and labels:
[1] = system: C. elegans exposed to P. aeruginosa strain PA14; assay: P. aeruginosa slow-killing assay (agar); assay type: in vivo, Caenorhabditis elegans; conditions: for Survival in slow-killing assay vs DMSO: wild-type young adult worms; for Rescue in slow killing on disruption of the PMK-1 MAPK pathway: pmk-1 or atf-7 RNAi
Source text: The finding that each of the compounds activated PMK-1/p38 MAPK targets was of interest, as this pathway is associated with enhanced immunity against multiple bacterial pathogens in agar-based C. elegans assays. Therefore, we tested whether these compounds could promote survival in an agar-based, high-colonization pathogenesis model known as slow killing. Loss of PMK-1 activity substantially compromises survival in the slow-killing assay ([16], [47]). Wild-type, young adult worms were exposed to P. aeruginosa strain PA14 on agar plates impregnated with each of the five compounds. […] To see whether this depended upon the PMK-1 pathway, LK32, LK38, and LK56 were retested in worms where RNAi was used to knock down pmk-1/MAPK or atf-7/ATF7 (a key transcription factor whose activity is modulated by PMK-1 [63, 64]) (Fig. 9; see Table S2 in the supplemental material for TD50 and overall statistical significance).
FIG 8 Four LK molecules extend C. elegans life span in the slow-killing assay. […] The data shown are from a representative replicate. Each of the three biological replicates was comprised of three plates per condition, with each plate containing ∼60 worms. Statistical significance was calculated using a log-rank test. Worms that left the surface of the plate were excluded from analysis (see Table S2 in the supplemental material for TD50 and exact P values).
FIG 9 Rescue in slow killing by a subset of LK compounds depends upon the PMK-1/p38 MAPK pathway. Wild-type L4 worms were reared on RNAi targeting pmk-1/p38 MAPK, atf-7/ATF-7, or empty vector and placed onto slow-killing plates containing DMSO or LK32 (A and B), LK38 (C and D), or LK56 (E and F) at 50 µM. Starting at 24 h, worms were scored every 12 h for survival until all worms perished. Each of the three biological replicates was comprised of three plates, each plate contained approximately 50 to 70 worms. Statistical significance was calculated using log-rank test (see Table S2 in the supplemental material for TD50 and exact P values). For vector RNAi, DMSO versus compound, P < 0.001 for LK38, LK56, and LK32.
Supplementary file : FIG S5 NSY-1 and SEK-1, upstream members of the PMK-1/p38 MAPK pathway, are required for LK38-mediated rescue. Young adult wild-type, nsy-1/MAP3K15(ag3), or sek-1/MAP2K6(km-4) mutants were exposed to P. aeruginosa in the slow-killing assay in the presence of DMSO or LK38. Data for each condition at each time point represent the average value for three plates from one representative replicate (of three replicates total). Each plate contained ∼60 worms. P values were calculated using a log-rank test (see Table S2 in the supplemental material for the TD50 and exact P values). For wild-type DMSO versus LK38 P < 0.001. No statistically significant difference was measured between LK38 and DMSO for either mutant. Download FIG S5, PDF file, 0.1 MB.
Slow-killing (SK) plates were made as previously reported ([92]). Compounds were added to molten SK agar before pouring plates. After solidifying, 40 µl of PA14 overnight culture was spread on plates before incubating plates at 37°C for 24 h, followed by 25°C for 24 h. 5-fluoro-2′-deoxyuridine (FUDR) (0.1 mg/ml) was dropped on plates 30 min prior to picking worms, to ensure nematode sterility. Fifty to seventy L4-stage, wild-type worms were picked onto plates and scored every 12 h after the first 24 h, until all worms were dead. Three biological replicates were performed.

[2] = system: glp-4(bn2) worms exposed to E. faecalis strain OG1RF; assay: E. faecalis infection assay (liquid); assay type: in vivo, Caenorhabditis elegans; conditions: for E. faecalis EC: glp-4(bn2) worms, 80 h, ± 95% confidence interval
Method: Enterococcus faecalis and Staphylococcus aureus are Gram-positive bacterial species frequently responsible for nosocomial infections ([24], [25]). These bacterial species readily infect C. elegans and liquid-based pathogenesis models have been developed for each ([26][–][28]). Sterile, young adult glp-4(bn2) worms were incubated with either E. faecalis or S. aureus and various concentrations of the five compounds. […] Importantly, P. aeruginosa, E. faecalis, and S. aureus use very different mechanisms to kill C. elegans (pyoverdine-mediated mitochondrial damage, gelatinase-mediated damage to the colonized intestine, and multi-toxin-mediated intestinal effacement and damage, respectively) ([29][–][33]). The ability of these compounds to rescue against multiple pathogens that utilize a diverse set of virulence factors and mechanisms of pathogenesis further supports the idea that at least a portion of these compounds’ activity is mediated by stimulating innate immunity.
FIG 2 A subset of LK molecules rescue against E. faecalis and S. aureus. […] Compounds were serially diluted 2-fold, and young adult glp-4(bn2) worms were incubated with the pathogen for 80 h (E. faecalis) or 96 h (S. aureus). The concentrations shown are based on the mean value for at least three replicates. (B and C) Percentages of dead C. elegans after exposure to E. faecalis (B) or S. aureus (C). A representative biological replicate is shown. Each condition included at least six wells per replicate, each well contained approximately 20 worms. Three biological replicates were performed. *, P < 0.05; **, P < 0.01; ***, P < 0.001. P values were calculated using Student’s t test. Error bars represent the standard error of the mean.
The E. faecalis infection assay was performed as previously described ([27]). A single colony was used to inoculate a 5 ml of BHI liquid culture. After 16 to 24 h, 400 µl of this culture was spread on a BHI agar plate and placed at 37°C for 24 h. Next, 384-well plates were made containing 10% BHI, and E. faecalis was removed from the plate by scraping and resuspended in S Basal medium to a final OD of 0.03. Compounds at the desired concentrations or DMSO (final concentration, 1%) were then added to each well. After 3 days, the worms were transferred to new plates using a 0.05% Tween solution to prevent background fluorescence from E. faecalis biofilm. Subsequent washing, staining, imaging, and image analysis was performed identically to Pseudomonas liquid killing. EC values were defined as the minimum concentration that provided statistically significant rescue. At least three biological replicates were performed.

[3] = wild-type worms, 50 µM, Fig 8 (DMSO 58.9)
[4] = vector RNAi, 50 µM, Fig 9 panels A-B, C, E
[5] = vector RNAi, 50 µM, Fig 9 panels D, F

For `CCN(CC)/N=N/c1ccc(C(=O)O)cc1` [LK35], the “TD50, slow killing” value [1, 3] was 57.5 h, the “Survival in slow-killing assay vs DMSO” value ([1]; 50 µM) was “not significant” and the “E. faecalis EC” value [2] was over 64 µM.

With `O=c1cc(CNc2ccc(Br)cc2)nc2sccn12` [LK56] the “TD50, slow killing” value ([1]; atf-7 RNAi, 50 µM, Fig 9) was 38.5 h, the “TD50, slow killing” value ([1]; pmk-1 RNAi, 50 µM, Fig 9) was 38.0 h and the “Rescue in slow killing on disruption of the PMK-1 MAPK pathway” value (from here on “Rescue in slow killing on disruption”) ([1]; 50 µM) was “retained at least partial ability to rescue”. The “TD50, slow killing” value [1, 4] was 59.9 h, the “TD50, slow killing” value [1, 5] was 56.1 h and the “TD50, slow killing” value [1, 3] was 60.5 h. For the same compound, the “Survival in slow-killing assay vs DMSO” value ([1]; 50 µM) was “improved survival”, the “Need of MDT-15 for rescue (mdt-15(RNAi))” value ([2]; E. faecalis, 32 µM) was “required” and the “E. faecalis EC” value [2] was 10.7 µM and 10.7 ± 3.3 µM.

In the case of `COC(=O)/C=C/C(=O)Nc1ccccc1` [LK32], the “TD50, slow killing” value ([1]; atf-7 RNAi, 50 µM, Fig 9) is reported as 46.2 h, the “TD50, slow killing” value ([1]; pmk-1 RNAi, 50 µM, Fig 9) is reported as 45.6 h and the “Rescue in slow killing on disruption” value ([1]; 50 µM) is reported as “retained at least partial ability to rescue”. The “TD50, slow killing” value [1, 4] was 59.1 h, the “Survival in slow-killing assay vs DMSO” value ([1]; 50 µM) was “improved survival” and the “E. faecalis EC” value [2] was 8 µM and 8 ± 0.0 µM.

`CNC(=O)Oc1c(Br)cc2sc(=O)oc2c1Br` [LK34] was tested, and the “Survival in slow-killing assay vs DMSO” value ([1]; 50 µM) was “improved survival” and the “E. faecalis EC” value [2] was 18.7 µM and 18.7 ± 8.7 µM.

With `CN(C)/N=N/c1ccc(-c2cn(Cc3ccccc3)cn2)cc1` [LK38] the “TD50, slow killing” value ([1]; N2 wild-type, Fig S5) was 59.5 h, the “TD50, slow killing” value ([1]; atf-7 RNAi, 50 µM, Fig 9) was 36.8 h and the “TD50, slow killing” value ([1]; nsy-1(ag3) mutant, Fig S5) was 26.5 h. The “TD50, slow killing” value ([1]; pmk-1 RNAi, 50 µM, Fig 9) was 35.6 h, the “Rescue in slow killing on disruption” value ([1]; 50 µM) was “completely dependent upon the PMK-1/MAPK pathways” and the “TD50, slow killing” value ([1]; sek-1(km4) mutant, Fig S5) was 27.6 h. The “TD50, slow killing” value [1, 4] was 65.2 h, the “TD50, slow killing” value [1, 5] was 53.5 h and the “TD50, slow killing” value [1, 3] was 59.5 h. For the same compound, the “Survival in slow-killing assay vs DMSO” value ([1]; 50 µM) was “improved survival” and the “E. faecalis EC” value [2] was over 64 µM.
